Patent publication US7754463B2, “Inhibitors of USP1 Deubiquitinating Enzyme Complex” (Dana-Farber Cancer Institute, priority 2006, dated 2010)
Starred links: 1 amine or outer side, 2 acyl side, 3 side chain; linkers in the order of their positions; H or OH if unused. Positions of bridges follow the written chain, without caps; N, C: chain ends. Non-standard residues stand in square brackets, D forms with d. Residues, ends and D or L forms follow the SMILES beside them. Chains are numbered I, II in the order given. Actinocin(9to1) = Cc1c2oc3c(C)ccc(C(=O)[*:1])c3nc-2c(C(=O)[*:2])c(N)c1=O; NMeV = CN[C@H](C(=O)O)C(C)C; Sar = CNCC(=O)O

What was measured:
USP1 [1] = molecular target: T1, USP1 (Homo sapiens, UniProt O94782, G670A/G671A); assay: Activation of USP1 enzymatic activity in vitro by UAF1 wild type or mutant protein; format: biochemical; conditions: all proteins 10 nM, Ub-AMC
T1 construct: His tag (N); made in house; host or cells: Sf9 insect cells
T1 sequence (O94782 1-785 G670A/G671A): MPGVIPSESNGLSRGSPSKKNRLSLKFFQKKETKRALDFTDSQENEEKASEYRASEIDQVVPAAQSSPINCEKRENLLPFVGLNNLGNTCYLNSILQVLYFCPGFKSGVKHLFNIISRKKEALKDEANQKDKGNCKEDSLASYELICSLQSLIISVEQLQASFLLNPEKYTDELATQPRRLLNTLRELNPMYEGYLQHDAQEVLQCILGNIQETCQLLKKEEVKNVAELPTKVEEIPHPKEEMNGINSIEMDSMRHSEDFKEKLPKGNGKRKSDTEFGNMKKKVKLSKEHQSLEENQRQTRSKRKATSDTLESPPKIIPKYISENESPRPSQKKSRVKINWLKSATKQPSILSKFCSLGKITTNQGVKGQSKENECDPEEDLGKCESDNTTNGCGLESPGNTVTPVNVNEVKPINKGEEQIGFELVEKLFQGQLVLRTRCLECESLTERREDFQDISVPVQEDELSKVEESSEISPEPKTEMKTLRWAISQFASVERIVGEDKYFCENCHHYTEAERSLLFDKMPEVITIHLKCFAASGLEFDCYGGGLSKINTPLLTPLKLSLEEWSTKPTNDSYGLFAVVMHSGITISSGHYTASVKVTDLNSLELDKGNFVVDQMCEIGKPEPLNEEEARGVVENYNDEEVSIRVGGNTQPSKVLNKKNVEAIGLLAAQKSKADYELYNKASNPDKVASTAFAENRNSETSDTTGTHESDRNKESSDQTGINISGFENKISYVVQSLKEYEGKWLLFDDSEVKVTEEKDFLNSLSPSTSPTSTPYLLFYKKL
Experimental: A) Scheme of wild type UAF1 and deletion mutants thereof. B) Flag-tagged deletion mutants of UAF1 were transiently expressed in 293T cells. The Flag-tagged proteins were immunoprecipitated from cell lysates using anti-Flag antibodies. The immunoprecipitates were analyzed using the indicated antibodies. C) A mutant protein of UAF1 where the second WD40 repeat has been deleted (UAF1-ΔWD2) fails to activate USP1 enzymatic activity in vitro. Strep-tagged UAF1-ΔWD2 was expressed and purified from Sf9 insect cells. The enzymatic activity of the USP1 enzyme was monitored as UAF1 wild type or mutant proteins was added to the reaction. The concentrations of all proteins were 10 nM.
The above experiments were performed using a preformed USP1/UAF1 complex. To gain further insight into the dynamics of USP1/UAF1 complex formation and USP1 activation, the kinetics of UAF1 binding and activation of USP1 were investigated. An in vitro enzymatic reaction of USP1 was set up using Ubiquitin-AMC as a substrate. Ten minutes into the reaction, during the stable and low substrate-turnover, either buffer or purified UAF1 protein was added in an equimolar amount to USP1. […] Given the affinity between the two proteins, it was predicted that as USP1 is synthesized in the cell, it rapidly forms a complex with UAF1. If UAF1 is not available, the protein is destabilized and degraded. […]

Ubiquitin-AMC = assay: In vitro enzymatic activity and kinetics of purified USP1, UAF1 and USP1/UAF1 with Ubiquitin-AMC; format: biochemical, human
Experimental: A) Coomassie blue stain of purified USP1 and UAF1 proteins, expressed either alone of simultaneously as a protein complex in Sf9 cells. B) The in vitro enzymatic activity of USP1, UAF1 or the USP1/UAF1 complex was assayed using Ub-AMC as a substrate. The concentration of each protein was 10 nM. C) Calculation of slopes of the curves in B. The activity of USP1 was arbitrarily set to a value of 1. Relative values for UAF1 and USP1/UAF1 were −0.25 and 36.25, respectively. The slightly negative value for UAF1 is a result of photo bleaching during the experiment. D) UAF1 activates USP1 instantly upon binding in vitro. The enzymatic activity of the USP1 enzyme was monitored as UAF1 was added to the reaction. The concentrations of both USP1 and UAF1 were 2 nM. E) Km and kcat values of the USP1 enzyme and the USP1/UAF1 complex were determined by measuring the substrate conversion at constant enzyme concentration (20 nM for USP1 and 2 nM for the USP1/UAF1 complex) and various substrate concentrations (final concentrations of Ub-AMC of 0.6 μM, 0.75 μM, 1 μM, 1.5 μM and 3 μM for USP1; and 0.42 μM, 0.525 μM, 0.7 μM, 1.05 μM, 2.1 μM […] for the USP1/UAF1 complex). Km and kcat values were calculated by plotting the obtained conversion values in a double-reciprocal Lineweaver-Burk plot. Standard deviation of Km and kcat were calculated from 5-6 independent repeats of the above measurements and are shown in brackets in the table.
Transcription/translation in rabbit reticulocyte was performed according to manufactures recommendations with the exception that the reactions were performed at 30° C. (Promega). In vitro enzymatic assays in the presence of 5 μM Ubiquitin-VS (Ubiquitin-Vinyl Sulfone; U-202; Boston Biochem) were performed 30° C. In vitro enzymatic assays using Ubiquitin-AMC (Ubiquitin-7-amido-4-methylcoumarin; U-550; Boston Biochem) were performed in 50-100 μl reaction buffer (20 mM HEPES-KOH pH 7.8, 20 mM NaCl, 0.1 mg/ml Ovalbumin (A7641; Sigma), 0.5 mM EDTA and 10 mM DTT) at 37° C. Fluorescence was monitored in a FluoStar Galaxy Fluorometer (BMG Labtech Inc.). In vitro deubiquitination reactions of Ub-FANCD2 were performed in 10 μl reaction buffer (90 mM Tris-HCl pH 8.0, 50 mM NaCl, 0.03% NP-40, 4 mg/ml BSA and 2 mM DTT) for 2 h at 30° C.
The enzymatic activity of the purified proteins was assayed using fluorogenic Ubiquitin-AMC as a substrate. […] The activity of the USP1/UAF1 heterodimer was about 30-fold higher than the activity of USP1 alone (FIG. 3C).
In order to better understand the enzymatic consequences of the complex-formation between UAF1 and USP1, the kinetic parameters of the USP1 enzyme alone and the UAF1/USP1 complex were determined. […] This mechanism of activation contrasts with that of another deubiquitinating enzyme, Uch37, which is involved in proteasome-mediated protein degradation. Uch37 is activated by the Adrm1 protein. […] Nat Cell Biol 8, 994-1002).

USP1 mRNA = USP1 mRNA level after transcription inhibition (Northern blot); format: cell-based, human; conditions: Actinomycin D, UV or both; data not shown
Experimental: Northern blot analysis was performed as described using the 394 nt PstI-EcoRV fragment of the USP1 cDNA (Cohn, M. A., Kramerov, D., Hulgaard, E. F., and Lukanidin, E. M. (1997). The differentiation antigen Ly-6E.1 is expressed in mouse metastatic tumor cell lines. FEBS Lett 403, 181-185).
UAF1 protein levels were not affected by UV irradiation (FIG. 6A and FIG. 6B). It was speculated that one regulatory event that may reduce USP1 activity after DNA damage may be transcriptional down-regulation of the USP1 gene. To test this hypothesis, USP1 mRNA levels were measured in 293T cells after UV irradiation. A rapid decrease of the USP1 mRNA (FIG. 6C) was observed, with kinetics reflecting the decrease of USP1 protein (FIG. 6B). […] To test whether active mRNA degradation also play a role in addition to transcriptional regulation, transcription was inhibited by Actinomycin D, an effective inhibitor of RNA polymerase II, cells were irradiated with UV, or both treatments were combined. […] Importantly, the level of full length USP1 decreased with kinetics similar to those in cells treated with UV irradiation (FIG. 6B).

UAF1 = UAF1 protein level after blocking transcription in 293T cells; format: cell-based, human; conditions: 5 μg/ml
Experimental: (§1) A) HeLa cells expressing exogenous Flag-HA-USP1 were irradiated with 50 J/m^2 and samples were taken at the indicated times. Flag-HA-USP1 was immunoprecipitated using anti-Flag antibodies and the immunoprecipitates were analyzed by immunoblotting using the indicated antibodies with the exception of Flag-HA-USP1, which was detected using the mouse monoclonal 12CA5 antibody. B) HeLa cells were UV irradiated with 50 J/m^2 (UVC) and samples were taken at the indicated times. Protein samples were analyzed by immunoblotting using the indicated antibodies. C) 293T cells were UV irradiated with 100 J/m^2 (UVC) and samples were taken at the indicated times. Total RNA was prepared an analyzed by Northern blot analysis using the indicated probes. D) Quantification of the USP1 and total RNA intensities from C. E) 293T cells were treated with 5 μg/ml Actinomycin D and samples were taken at the indicated times. Protein samples were analyzed by immunoblotting using the indicated antibodies.
(§2) UAF1 protein levels were not affected by UV irradiation (FIG. 6A and FIG. 6B). It was speculated that one regulatory event that may reduce USP1 activity after DNA damage may be transcriptional down-regulation of the USP1 gene. To test this hypothesis, USP1 mRNA levels were measured in 293T cells after UV irradiation. […]

USP1 [2] = assay: USP1 protein level after blocking transcription in 293T cells; format: cell-based, human; conditions: 5 μg/ml
Experimental: as §1, §2

Molecule: UAF1: purified USP1 Associated Factor 1, WD40 repeat protein (SEQ ID NO:4)
- stimulation of USP1 enzymatic activity (USP1 [1]): able to stimulate the enzymatic activity of USP1
- relative activity (slope of Ub-AMC curve), USP1 set to 1 (Ubiquitin-AMC; 10 nM each protein): −0.25
- deubiquitinating activity on Ubiquitin-AMC (Ubiquitin-AMC; purified protein alone): no detectable deubiquitinating activity

Molecule: Cc1c2oc3c(C)ccc(C(=O)N[C@@H]4C(=O)N[C@H](C(C)C)C(=O)N5CCC[C@H]5C(=O)N(C)CC(=O)N(C)[C@@H](C(C)C)C(=O)O[C@@H]4C)c3nc-2c(C(=O)N[C@@H]2C(=O)N[C@H](C(C)C)C(=O)N3CCC[C@H]3C(=O)N(C)CC(=O)N(C)[C@@H](C(C)C)C(=O)O[C@@H]2C)c(N)c1=O [Actinomycin D] (I: T[dV]P[Sar][NMeV] / II: T[dV]P[Sar][NMeV]; ester I:1-I:C, II:1-II:C; linker I:N-II:N via Actinocin(9to1))
- USP1 mRNA level (USP1 mRNA): decreased with similar kinetics in all three cases
- level of UAF1 protein (UAF1): remained unchanged
- USP1 protein levels over time (USP1 [2]): decrease of USP1 protein levels over time
